One data set deals with intestinal α-glucosidase (Rattus norvegicus, UniProt P23739). Put plainly: In vitro intestinal α-glucosidase inhibitory assay (sucrose substrate, glucose release). It counts as biochemical. Particulars: for Inhibition Type: Lineweaver–Burk plots, inhibitor 50 µM (acarbose 5 µM); for Vmax: enzyme Vmax in presence of inhibitor 50 µM (acarbose 5 µM), control 14.1 ± 0.7. How it is done: The effect of the N. sativa seed extracts and fractions against intestinal α-glucosidase activity was quantified colorimetrically by monitoring the glucose release from sucrose degradation, according to the protocol described by Ouassou et al.. The assay mixtures contained 100 µL of sucrose (50 Mm), 1000 μL of phosphate- buffer (50 mM; pH = 7.5), and 100 μL of intestinal α-glucosidase enzyme solution (10 IU). […] Then, tubes were incubated at 37 °C in a water bath for 25 min. The mixture was heated at 100 °C for 5 min to stop the enzymatic reaction, and the release of glucose was estimated by the glucose oxidase method using a commercially available auto-kit. The absorbance was measured at 500 nm, and the inhibition percentage was calculated using the below formula:Inhibitory activity percentage = ((Acontrol 500 nm − ATest 500 nm)/Acontrol 500 nm) × 100(1)
Chain of intestinal α-glucosidase (P23739 whole entry): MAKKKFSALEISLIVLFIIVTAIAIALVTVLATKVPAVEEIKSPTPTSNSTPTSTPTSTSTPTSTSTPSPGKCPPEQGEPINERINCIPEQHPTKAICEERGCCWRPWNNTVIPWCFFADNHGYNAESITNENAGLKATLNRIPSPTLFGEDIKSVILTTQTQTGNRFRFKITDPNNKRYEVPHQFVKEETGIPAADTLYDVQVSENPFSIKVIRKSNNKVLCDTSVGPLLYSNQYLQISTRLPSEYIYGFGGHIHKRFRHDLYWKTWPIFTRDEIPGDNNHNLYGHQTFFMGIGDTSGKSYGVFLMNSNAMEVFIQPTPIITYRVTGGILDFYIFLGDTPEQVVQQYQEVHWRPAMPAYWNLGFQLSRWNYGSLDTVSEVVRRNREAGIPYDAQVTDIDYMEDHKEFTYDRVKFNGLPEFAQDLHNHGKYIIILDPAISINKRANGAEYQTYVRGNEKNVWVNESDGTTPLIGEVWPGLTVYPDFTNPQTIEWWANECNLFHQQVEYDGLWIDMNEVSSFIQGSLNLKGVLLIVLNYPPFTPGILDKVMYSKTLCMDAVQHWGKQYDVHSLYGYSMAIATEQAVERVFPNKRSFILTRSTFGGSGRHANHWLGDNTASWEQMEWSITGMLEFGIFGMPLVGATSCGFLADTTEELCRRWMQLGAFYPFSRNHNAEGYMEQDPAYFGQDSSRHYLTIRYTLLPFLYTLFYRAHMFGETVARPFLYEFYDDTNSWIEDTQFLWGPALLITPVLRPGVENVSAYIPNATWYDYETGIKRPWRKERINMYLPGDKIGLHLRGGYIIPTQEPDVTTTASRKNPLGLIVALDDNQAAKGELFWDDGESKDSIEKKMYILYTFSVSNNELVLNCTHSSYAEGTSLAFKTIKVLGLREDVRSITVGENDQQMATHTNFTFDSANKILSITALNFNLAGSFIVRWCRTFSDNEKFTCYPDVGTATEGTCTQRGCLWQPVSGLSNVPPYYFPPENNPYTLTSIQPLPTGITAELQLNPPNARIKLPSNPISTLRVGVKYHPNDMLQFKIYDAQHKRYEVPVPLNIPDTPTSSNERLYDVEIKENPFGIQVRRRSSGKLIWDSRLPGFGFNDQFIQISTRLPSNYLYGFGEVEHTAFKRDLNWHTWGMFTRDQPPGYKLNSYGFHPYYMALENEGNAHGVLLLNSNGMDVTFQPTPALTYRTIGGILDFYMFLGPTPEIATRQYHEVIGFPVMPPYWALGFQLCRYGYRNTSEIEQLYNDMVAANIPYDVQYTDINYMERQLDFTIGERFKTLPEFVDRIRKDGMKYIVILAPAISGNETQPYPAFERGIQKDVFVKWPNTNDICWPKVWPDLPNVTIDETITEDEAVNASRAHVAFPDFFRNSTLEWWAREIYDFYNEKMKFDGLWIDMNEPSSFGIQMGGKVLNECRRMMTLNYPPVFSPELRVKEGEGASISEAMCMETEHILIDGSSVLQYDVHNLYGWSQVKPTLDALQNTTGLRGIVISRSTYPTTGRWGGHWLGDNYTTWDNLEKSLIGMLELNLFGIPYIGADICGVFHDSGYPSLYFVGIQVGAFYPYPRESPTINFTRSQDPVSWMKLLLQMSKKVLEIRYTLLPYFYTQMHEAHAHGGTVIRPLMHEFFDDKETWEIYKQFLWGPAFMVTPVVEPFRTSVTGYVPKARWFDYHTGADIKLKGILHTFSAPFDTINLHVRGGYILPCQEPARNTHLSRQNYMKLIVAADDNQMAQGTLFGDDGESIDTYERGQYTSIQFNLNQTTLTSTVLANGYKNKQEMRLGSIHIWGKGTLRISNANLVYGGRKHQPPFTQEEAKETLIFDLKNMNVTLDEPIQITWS
The assays were conducted as described above. […] The experiments were repeated three times.

In another data set the target is T1, pancreatic α-amylase (Sus scrofa, UniProt P00690).
T1 sequence (P00690 16-511): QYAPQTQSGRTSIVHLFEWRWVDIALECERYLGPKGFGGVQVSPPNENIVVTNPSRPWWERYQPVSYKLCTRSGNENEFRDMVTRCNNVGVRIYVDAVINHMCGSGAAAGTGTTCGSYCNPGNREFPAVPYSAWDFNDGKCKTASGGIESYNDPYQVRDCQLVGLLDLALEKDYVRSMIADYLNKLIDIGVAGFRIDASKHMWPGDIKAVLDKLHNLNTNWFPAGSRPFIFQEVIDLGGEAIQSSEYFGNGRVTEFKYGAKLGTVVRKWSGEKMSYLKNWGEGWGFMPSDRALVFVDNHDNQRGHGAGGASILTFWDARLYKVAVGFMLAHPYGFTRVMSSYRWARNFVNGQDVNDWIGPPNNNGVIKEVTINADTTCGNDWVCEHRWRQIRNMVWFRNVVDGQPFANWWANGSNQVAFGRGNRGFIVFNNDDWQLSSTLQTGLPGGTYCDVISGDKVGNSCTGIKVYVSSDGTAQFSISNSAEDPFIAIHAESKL
Description: In vitro pancreatic α-amylase inhibitory assay (starch substrate, DNSA). To be noted: for Inhibition Type: Lineweaver–Burk plots, inhibitor 50 µM (acarbose 5 µM); for Vmax: enzyme Vmax in presence of inhibitor 50 µM (acarbose 5 µM), control 29.6 ± 0.8.

The conditions of data set [1]: extraction solvent; source not given; cited from earlier work.

Description for pancreatic α-amylase: The inhibition of pancreatic α-amylase activity by N. sativa seed extracts and fractions was studied according to the procedure described by Daoudi et al. [29]. […] The mixtures were pre-incubated at 37 °C for 10 min. Then, 200 μL of starch (1% (w/v)) dissolved in phosphate buffer was added to each tube and were incubated for 20 min at 37 °C. To stop the enzymatic reaction 600 μL of DNSA color reagent was added. Hereafter, the tubes were incubated for 8 min at 100 °C, before being put in an ice-cold-water bath for a few minutes. The mixture was diluted by adding 1 mL of distilled water and the absorbance was measured at 540 nm. Inhibition percentage was calculated using the formula bellows:Inhibitory activity percentage= ((AControl 540 nm − ATest 540 nm)/AControl 540 nm) × 100(2)
Lineweaver–Burk double reciprocal representation (plotting 1/velocity vs 1/substrate concentration) was used to assess inhibition mode, and kinetic parameters Km and Vmax were determined using the Michaelis-Menten equation.
Secondary plots were used to establish the inhibition constants Ki (slope of the Lineweaver–Burk double reciprocal representation vs inhibitor concentration and intercept of the Lineweaver–Burk double reciprocal representation vs inhibitor concentration).

What is called Vmax is the top rate of the reaction or transport when substrate is in excess. As for `Oc1cc(O)c2c(c1)O[C@@H](c1ccc(O)c(O)c1)[C@H](O)C2` [(−)-Catechin, (−)-catechin], at intestinal α-glucosidase, the “Inhibition Type” value is listed as “Noncompetitive” and the Vmax stood at 13.1 ± 0.9 µM/min. Also, the “fractional inhibition concentration (FIC)” value at intestinal α-glucosidase (mixed with acarbose, FIC = IC50 in combination with acarbose/IC50 alone, synergistic effect) came to 0.16.
Broadly, the inhibition is how much of the control response was suppressed. Turning to `C[C@H]1O[C@H](O[C@H]2[C@H](O)[C@@H](O)[C@@H](O[C@H]3[C@H](O)[C@@H](O)C(O)O[C@@H]3CO)O[C@@H]2CO)[C@H](O)[C@@H](O)[C@@H]1N[C@H]1C=C(CO)[C@@H](O)[C@H](O)[C@H]1O` (stereo partly shown) [Acarbose, acarbose, reference compound], on intestinal α-glucosidase, the “Inhibition Type” value was “Competitive” and the Vmax is reported as 23.9 ± 0.5 µM/min. For the same compound, the inhibition at 50 µM on intestinal α-glucosidase (read-out: Inhibition of intestinal α-glucosidase activity) was 89.2 ± 0.5%. For the same compound, on pancreatic α-amylase, the “Inhibition Type” value is “Competitive” and the Vmax came to 53.8 ± 1.1 µM/min. In addition, at pancreatic α-amylase (positive control at 5 µM (3.22 µg/mL)), the “Inhibition of pancreatic α-amylase activity” value is reported as 65.6 ± 4.1%.
As for `CC(C)=O` [Acetone], the logP in data set [1] is −0.16.
With `O=c1cc(-c2ccc(O)cc2)oc2cc(O)cc(O)c12` [Apigenin, apigenin], at pancreatic α-amylase, the “Inhibition Type” value is on record as “Competitive” and the Vmax came out at 90.1 ± 0.7 µM/min. Moreover, at pancreatic α-amylase (combined with acarbose, possible additive effect), the “fractional inhibition concentration (FIC)” value is listed as 0.74.
For orientation: IC50 means the concentration that gives 50% inhibition. Turning to `O=C(O)c1cc(O)c(O)c(O)c1` [Gallic acid, gallic acid], at intestinal α-glucosidase, the “Inhibition Type” value is recorded as “Noncompetitive” and the Vmax worked out at 14.7 ± 1.2 µM/min. On pancreatic α-amylase, the IC50 stood at 27.8 ± 2.06 µM, the “Inhibition Type” value was “Competitive” and the maximum rate (Vmax) stood at 76.9 ± 1.4 µM/min.
In the case of `CC1=CC(=O)C(C(C)C)=CC1=O` [thymoquinone], the “inhibition of intestinal α-glucosidase (in words)” value against intestinal α-glucosidase (under the evaluated concentration range (50 µM in kinetics), data not shown) is listed as “not active”.
